Converted amounts (≈) assume the structure as drawn.
Key:
[1] = tested on: Haemophilus influenzae (Isolate ID ATCC 49247); experiment: Antibacterial activity, MIC, H. influenzae; type: cell-based; details: Haemophilus influenzae, ATCC49247; Gram negative strain; broth microdilution or agar dilution
Outline: (§1)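 Susceptibility testing run in liquid or on solid media, with MIC values obtained by the CLSI-described broth microdilution or agar dilution method.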

[2] = tested on: Enterococcus faecalis (Isolate ID ATCC 29212); experiment: Antibacterial activity, MIC, E. faecalis; type: cell-based; details: Enterococcus faecalis, ATCC29212; Gram positive strain; broth microdilution or agar dilution
Description: Bacterial Assay: Determination of Antibacterial Activity
Compounds of the invention were tested for antimicrobial activity by susceptibility testing in liquid or on solid media. MICs for compounds against each strain were determined by the broth microdilution or agar dilution method according to the guidelines of the Clinical Laboratories and Standards Institute, formerly the National Committee for Clinical Laboratory Standards (Clinical Laboratories and Standards Institute. Methods for Dilution Antimicrobial Susceptibility Tests for Bacteria That Grow Aerobically; Approved Standard—Seventh Edition. Document M7-A7. CLSI, Wayne, Pa., 2006; Clinical Laboratories and Standards Institute. The gram positive bacterial strains tested include S. aureus (Staphylococcus aureus (Isolate ID ATCC 29213)), E. faecalis (Enterococcus faecalis (Isolate ID ATCC 29212)) and S. pyogenes (Streptococcus pyogenes (Isolate ID ATCC 51339)). The gram negative bacterial strains tested include H. influenzae (Haemophilus influenzae (Isolate ID ATCC 49247))

[3] = tested on: Staphylococcus aureus (Isolate ID ATCC 29213); experiment: Antibacterial activity, MIC, S. aureus; type: cell-based; details: Staphylococcus aureus, ATCC29213, Gram positive strain; broth microdilution or agar dilution
Outline: as §1

[4] = tested on: Streptococcus pyogenes (Isolate ID ATCC 51339); experiment: Antibacterial activity, MIC, S. pyogenes; type: cell-based; details: Streptococcus pyogenes, ATCC51339, Gram positive strain; broth microdilution or agar dilution
Outline: as §1

[5] = physchem; details: pH 7.4, aqueous buffer, kinetic from dmso stock
Outline: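 DMSO doubling dilutions were diluted twenty-fold into 100 mM citrate (pH 4), PBS (pH 7.4) or carbonate-bicarbonate (pH 9). After 24 h equilibration at room temperature, absorbance was read at 620 nm. The reported value is the highest concentration without measurable precipitate.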

[6] = Solubility Range (maximum solubility)

Compound	MIC [1] [mg/L]	MIC [2] [mg/L]	MIC [3] [mg/L]	MIC [4] [mg/L]	solubility at 24 h ([5]; Solubility (pH 7.4)) [mg/mL]	solubility at 24 h ([5]; Solubility Range) [mg/mL]	solubility at 24 h ([5]; Max Solubility) [mg/mL]	solubility at 24 h [5, 6] [mg/mL]
CCNC(=O)Nc1nc2cc(-c3cnc(N4CCCCC4(C)C(=O)O)nc3)cc(-c3ccccn3)c2s1 (stereo not shown) [Compound 2]	1 to 16 (≈ 1.93 to 30.9 µM)	0.25 to 1 (≈ 0.483 to 1.93 µM)	0.25 to 1 (≈ 0.483 to 1.93 µM)	0.25 to 1 (≈ 0.483 to 1.93 µM)	0.00625 (≈ 12.1 µM)	< 0.0125		
CCNC(=O)Nc1nc2cc(-c3cnc(N4CCC(O)C(C)(C(=O)O)C4)nc3)cc(-c3ccccn3)c2s1 (stereo not shown) [Compound 3]	1 to 16 (≈ 1.87 to 30 µM)	0.25 to 1 (≈ 0.469 to 1.87 µM)	1 to 16 (≈ 1.87 to 30 µM)	≤ 0.25	0.4 (≈ 750 µM)	0.4 to 0.8 (≈ 750 to 1500 µM)		
CCNC(=O)Nc1nc2cc(-c3cnc(N4CCC(C)(C(=O)O)CC4)c(C)c3)cc(-c3ccccn3)c2s1 [Compound 5]	> 16	≤ 0.25	≤ 0.25	≤ 0.25	≥ 0.8	> 0.8		
CCNC(=O)Nc1nc2cc(-c3cnc(N4CCC(C)(C(=O)O)CC4)nc3)cc(-c3cc(C)ccn3)c2s1 [Compound 6, 1-[5-[2-(ethylcarbamoylamino)-7-(4-methyl-2-pyridyl)-1,3-benzothiazol-5-yl]pyrimidin-2-yl]-4-methyl-piperidine-4-carboxylic acid]	1 to 16 (≈ 1.88 to 30.1 µM)	≤ 0.25	≤ 0.25	≤ 0.25	0.4 (≈ 752 µM)	0.4 to 0.8 (≈ 752 to 1500 µM)		
CCNC(=O)Nc1nc2cc(-c3cnc(N4CCC(C)(C(=O)O)CC4)nc3)cc(-c3ccc(OC)c(OC)n3)c2s1 [Compound 7]	0.25 to 1 (≈ 0.433 to 1.73 µM)	≤ 0.25	≤ 0.25	≤ 0.25	0.4 (≈ 692 µM)	0.4 to 0.8 (≈ 692 to 1380 µM)		
CCNC(=O)Nc1nc2cc(-c3cnc(N4CCC(C)(C(=O)O)CC4)nc3)cc(-c3nccc(OC)n3)c2s1 [Compound 8]	1 to 16 (≈ 1.82 to 29.2 µM)	≤ 0.25	≤ 0.25	≤ 0.25	0.1 (≈ 182 µM)	0.0125 to 0.4 (≈ 22.8 to 729 µM)		
CCNC(=O)Nc1nc2cc(-c3cnc(N4CCC(C)(C(=O)O)C(C)C4)nc3)cc(-c3ccccn3)c2s1 (stereo not shown) [Compound 9]	1 to 16 (≈ 1.88 to 30.1 µM)	≤ 0.25	≤ 0.25	≤ 0.25	≥ 0.8	> 0.8		
CCNC(=O)Nc1nc2cc(-c3cnc(N4CCC(C)(C(=O)O)CC4)nc3)cc(-c3cc(F)ccn3)c2s1 [Compound 10]	1 to 16 (≈ 1.87 to 29.9 µM)	≤ 0.25	≤ 0.25	≤ 0.25	0.1 (≈ 187 µM)	0.0125 to 0.4 (≈ 23.3 to 747 µM)		
CCNC(=O)Nc1nc2cc(-c3cnc(N4CCC(C)(C(=O)O)CC4)nc3)cc(-c3cnccn3)c2s1 [Compound 11]	1 to 16 (≈ 1.93 to 30.9 µM)	≤ 0.25	≤ 0.25	≤ 0.25	≥ 0.8	> 0.8		
CCNC(=O)Nc1nc2cc(-c3cnc(N4CCC(C)(C(=O)O)CC4)nc3)cc(-c3nccc(C)n3)c2s1 [Compound 12]	1 to 16 (≈ 1.88 to 30 µM)	≤ 0.25	≤ 0.25	≤ 0.25	≥ 0.8	> 0.8		
CCNC(=O)Nc1nc2cc(-c3cnc(N4CCC(C)(C(=O)O)CC4)nc3)cc(-c3ncccc3C#N)c2s1 [Compound 13]	1 to 16 (≈ 1.84 to 29.5 µM)	≤ 0.25	≤ 0.25	≤ 0.25	0.1 (≈ 184 µM)	0.0125 to 0.4 (≈ 23 to 737 µM)		
CCNC(=O)Nc1nc2cc(-c3cnc(N4CCC(C)(C(=O)O)CC4)nc3)cc(-c3ccc(C#N)cn3)c2s1 [Compound 14]	0.25 to 1 (≈ 0.461 to 1.84 µM)	≤ 0.25	≤ 0.25	≤ 0.25	≥ 0.8	> 0.8		
CCNC(=O)Nc1nc2cc(-c3cnc(N4CCC(C)(C(=O)O)CC4)nc3)cc(-c3cc(OC)ncn3)c2s1 [Compound 15]	0.25 to 1 (≈ 0.456 to 1.82 µM)	≤ 0.25	≤ 0.25	≤ 0.25	≥ 0.8	> 0.8		
CCNC(=O)Nc1nc2cc(-c3cnc(N4CCC(C)(C(=O)O)CC4)nc3)cc(-c3cc(C#N)ccn3)c2s1 [Compound 16]	1 to 16 (≈ 1.84 to 29.5 µM)	≤ 0.25	≤ 0.25	≤ 0.25	0.00625 (≈ 11.5 µM)	< 0.0125		
CCNC(=O)Nc1nc2cc(-c3cnc(N4CCC(C)(C(=O)O)CC4)nc3)cc(-c3cc(OC)ccn3)c2s1 [Compound 17]	0.25 to 1 (≈ 0.457 to 1.83 µM)	≤ 0.25	≤ 0.25	≤ 0.25	≥ 0.8	> 0.8		
CCNC(=O)Nc1nc2cc(-c3cnc(N4CCC(C)(C(=O)O)CC4)nc3)cc(-c3ncccc3F)c2s1 [Compound 18]	1 to 16 (≈ 1.87 to 29.9 µM)	≤ 0.25	≤ 0.25	≤ 0.25	≥ 0.8	> 0.8	≥ 0.8	> 0.8
CCNC(=O)Nc1nc2cc(-c3cnc(N4CCC(C)(C(=O)O)CC4)nc3)cc(-c3ncco3)c2s1 [Compound 19]	1 to 16 (≈ 1.97 to 31.5 µM)	≤ 0.25	0.25 to 1 (≈ 0.493 to 1.97 µM)	≤ 0.25	≥ 0.8	> 0.8		
CCNC(=O)Nc1nc2cc(-c3cnc(N4CCC(C)(C(=O)O)CC4)nc3)cc(-c3cncs3)c2s1 [Compound 20]	1 to 16 (≈ 1.91 to 30.6 µM)	≤ 0.25	0.25 to 1 (≈ 0.477 to 1.91 µM)	≤ 0.25	≥ 0.8	> 0.8		
CCCCC#Cc1cc(-c2cnc(N3CCC(C)(C(=O)O)CC3)nc2)cc2nc(NC(=O)NCC)sc12 [Compound 22]	> 16	≤ 0.25	0.25 to 1 (≈ 0.48 to 1.92 µM)	1 to 16 (≈ 1.92 to 30.7 µM)	≥ 0.8	> 0.8		
CCNC(=O)Nc1nc2cc(-c3cnc(N4CCC(C)(C(=O)O)CC4)nc3)cc(-c3csc(OC)n3)c2s1 [Compound 23, 1-[5-[2-(ethylcarbamoylamino)-7-(2-methoxythiazol-4-yl)-1,3-benzothiazol-5-yl]pyrimidin-2-yl]-4-methyl-piperidine-4-carboxylic acid]	1 to 16 (≈ 1.81 to 28.9 µM)	≤ 0.25	≤ 0.25	≤ 0.25	≥ 0.8	> 0.8		
CCNC(=O)Nc1nc2cc(-c3cnc(N4CCC(C)(C(=O)O)CC4)nc3)cc(-c3cnn(C)c3)c2s1 [Compound 24]	1 to 16 (≈ 1.92 to 30.7 µM)	≤ 0.25	1 to 16 (≈ 1.92 to 30.7 µM)	0.25 to 1 (≈ 0.48 to 1.92 µM)	≥ 0.8	> 0.8		
CCNC(=O)Nc1nc2cc(-c3cnc(N4CCC(C)(C(=O)O)CC4)nc3)cc(-c3cn[nH]c3)c2s1 [Compound 25]	> 16	0.25 to 1 (≈ 0.493 to 1.97 µM)	> 16	0.25 to 1 (≈ 0.493 to 1.97 µM)	≥ 0.8	> 0.8		
CCNC(=O)Nc1nc2cc(-c3cnc(N4CCC(C)(C(=O)O)CC4)nc3)cc(O)c2s1 [Compound 26, 1-[5-[2-(ethylcarbamoylamino)-7-hydroxy-1,3-benzothiazol-5-yl]pyrimidin-2-yl]-4-methyl-piperidine-4-carboxylic acid]	> 16	1 to 16 (≈ 2.19 to 35 µM)	> 16	1 to 16 (≈ 2.19 to 35 µM)	≥ 0.8	> 0.8		
CCNC(=O)Nc1nc2cc(-c3cnc(N4CCC(C)(C(=O)O)CC4)nc3)cc(-c3nc(CO)cs3)c2s1 [Compound 27]	1 to 16 (≈ 1.81 to 28.9 µM)	≤ 0.25	1 to 16 (≈ 1.81 to 28.9 µM)	≤ 0.25	≥ 0.8	> 0.8		
C#Cc1cc(-c2cnc(N3CCC(C)(C(=O)O)CC3)nc2)cc2nc(NC(=O)NCC)sc12 [Compound 28]	1 to 16 (≈ 2.15 to 34.4 µM)	≤ 0.25	0.25 to 1 (≈ 0.538 to 2.15 µM)	0.25 to 1 (≈ 0.538 to 2.15 µM)	≥ 0.8	> 0.8		
CCNC(=O)Nc1nc2cc(-c3cnc(N4CCC(C)(C(=O)O)CC4)nc3)cc(-n3cccn3)c2s1 [Compound 29]	1 to 16 (≈ 1.97 to 31.6 µM)	≤ 0.25	0.25 to 1 (≈ 0.493 to 1.97 µM)	0.25 to 1 (≈ 0.493 to 1.97 µM)	≥ 0.8	> 0.8		
CCNC(=O)Nc1nc2cc(-c3cnc(N4CCC(C)(C(=O)O)CC4)nc3)cc(-c3cccn3C)c2s1 [Compound 30]	1 to 16 (≈ 1.92 to 30.8 µM)	≤ 0.25	0.25 to 1 (≈ 0.481 to 1.92 µM)	0.25 to 1 (≈ 0.481 to 1.92 µM)	≥ 0.8	> 0.8		
CCNC(=O)Nc1nc2cc(-c3cnc(N4CCC(C)(C(=O)O)CC4)nc3)cc(-c3ccc(C)cn3)c2s1 [Compound 31]	0.25 to 1 (≈ 0.47 to 1.88 µM)	≤ 0.25	≤ 0.25	≤ 0.25	≥ 0.8	> 0.8	≥ 0.8	> 0.8
